Results published in US7029879B1, “Iodine uptake restoration in thyroid cancer” (University of Kentucky Research Foundation, priority 1999, dated 2006).

What was measured:
[1] = system: UCLA RO 82 W-1 (WRO82) cells; conditions: UCLA RO 82 W-1 (WRO82) follicular carcinoma cell line; cited from earlier work
[2] = system: dedifferentiated follicular and papillary thyroid cancers; conditions: of 14 patients not concentrating any radioiodine in metastatic tumors at baseline; cited from earlier work
[3] = system: thyroid peroxidase (TPO) mRNA; experiment: Thyroid peroxidase (TPO) mRNA RT-PCR after polyamine synthesis inhibition; type: cell-based, human; conditions: NPA'87 and KAK-1; minimal basal expression; every dosage
Text: (§1) hNIS transcriptional failure in thyroid carcinoma could be consequent to methylation of DNA in critical regulatory regions and could be reversed by inhibition of DNA-methyltransferase. Restoration of hNIS gene expression and activity from direct DNA-methyltransferase inhibition by 5-azacytidine has been shown. […] Since dcSAM is consumed by synthesis of polyamines (putrescine, spermidine, spermine) and its synthetic enzyme (adenosylmethionine decarboxylase) is stimulated by polyamine depletion, blockade of polyamine synthesis precipitously increases dcSAM levels. This should block DNA-methyltransferase activity and restore lost hNIS expression in dedifferentiated thyroid carcinomas. To assess this, human thyroid cell lines (NPA'87, papillary carcinoma, & KAK-1, follicular adenoma) without basal expression of hNIS or thyroglobulin (TG) mRNAs, were grown as monolayers in phenol red-free RPMI 1640 with 10% fetal bovine serum. […] Parallel cultures were assessed for Na[^125I] uptake (RAIU) in serum-free buffer, subtracting ^125I counts in buffer with choline (100 mM) to correct for non-specific counts and results normalized for cell density in each condition using thiazolyl blue (MTT) assays. […]

thyroglobulin (TG) mRNA = experiment: Thyroglobulin (TG) mRNA RT-PCR after polyamine synthesis inhibition; type: cell-based, human; conditions: NPA'87 and KAK-1; DFMO 1 or 3 mM, AdoDATO 10 or 30 μM, 6 days; higher doses greater effect
Text: as §1

KAK-1 cells = experiment: Na[125I] uptake (RAIU) after polyamine synthesis inhibition, KAK-1; type: cell-based, human; conditions: 30 μM AdoDATO
Text: as §1

hNIS mRNA = hNIS mRNA RT-PCR after polyamine synthesis inhibition; type: cell-based, human; conditions: NPA'87 and KAK-1; DFMO 1 or 3 mM, AdoDATO 10 or 30 μM, 6 days; higher doses greater effect
Text: as §1

NPA'87 cells = experiment: Na[125I] uptake (RAIU) after polyamine synthesis inhibition, NPA'87; type: cell-based, human; conditions: DFMO at 3 mM
Text: as §1

[4] = system: human thyroid cancer cell lines; conditions: several human thyroid cancer cell lines in vitro; cited from earlier work

TPO expression [3] | Molecule | TG mRNA expression (thyroglobulin (TG) mRNA) | hNIS mRNA expression (hNIS mRNA) | further results
– | CC1=C(/C=C/C(C)=C/C=C/C(C)=C\C(=O)O)C(C)(C)CCC1 [13cis-retinoic acid] | – | – | iodide uptake activity [1]: nominal increase; additional patients gaining "weak" uptake [2]: three; patients re-establishing distinct iodide uptake after treatment [2]: one
enhancing expression at every dosage | NCCCCC[S+](CCN)CC1OC(n2cnc3c(N)ncnc32)C(O)C1O (stereo not drawn) [AdoDATO, S-adenosyl-1,8-diamino-3-thio-octane] | restored | restored | increase in RAIU (KAK-1 cells): ~5 fold
enhancing expression at every dosage | NCCCC(N)(C(=O)O)C(F)F (stereo not drawn) [DFMO, difluoromethylomithine] | restored | restored | increase in RAIU (NPA'87 cells): > 6 fold
– | gamma interferon: cytokine suggested in the literature to minimally enhance iodide uptake in thyroid cancer cell lines | – | – | enhancement of iodide uptake [4]: minimal enhancement
